Results taken from US7674813B2, “Heterocyclic sulfonamide inhibitors of beta amyloid production containing an azole” (Wyeth, priority 2004, dated 2010).

What was measured:
beta amyloid 40 = assay: Aβ40/42 ELISA Assay (Aβ40); format: cell-based; details: Cricetulus griseus; CHO cells carrying the APP-REP-NL plasmid, 22 hours, sandwich ELISA
Procedure: (§1) Compounds are diluted from DMSO stocks to 2 μM and below in a cell culture medium. Compounds are then applied to CHO cells carrying the APP-REP-NL plasmid [Sudhir et. al, J. Biolog. Chem. 267:25602-25608 (1992)] for a period of 22 hours. After the conditioning period, medium is collected, diluted in assay buffer containing protein, and samples, controls, and synthetic peptide standards are incubated on a prepared ELISA plate. Using a sandwich ELISA with antibodies specifically directed against the carboxyl terminus of beta amyloid 40 or 42 (analogous to the method reported by Haugabook et al., J. Neurosci. Methods 108:171-179 (2001) but using goat anti-mouse IgG1 (source: Southern Biotech) as the anchor, 6E10 as the capture antibody (Source: SENETEK), rabbit antiAβ40 and antiAβ42 (source: QCB) and APL-donkey anti-rabbit IgG (H+L, source: Southern Biotech) as the detection antibody), the effect of the compound treatment on the cellular production of extracellular beta amyloid is quantified. Cells treated with compound are subsequently incubated in cell culture medium containing MTS-formazan. After a short incubation period, MTS/medium containing plates are read in a spectrophotometer to determine the extent to which compound toxicity affected the cell's metabolism and ability to synthesize beta amyloid.
(§2) A. Test Samples: compound samples are supplied as 20 mM stock solutions in a 100% DMSO solution.
(§3) B. APP-REP-NL cells: Qualified cell lines are carried from week to week using 1:100 dilutions and are cultured in DMEM supplemented with 1× antibiotic/antimycotic, 200 ug/ml of G418 antibiotic, and 10% certified fetal calf serum. Cells are also banked in liquid nitrogen. Periodically, beta amyloid production is assessed, and cells are either kept in culture or replaced with progenitors at full expression.
(§4) C. Antibodies: From certified lots that have already been qualified in this assay. Antibodies are stored in small frozen aliquots at −80° C. that are thawed and used.
(§5) A compound is considered active if it has an EC50 for Aβ40 reduction of <100 μM and no toxicity at doses in the vicinity of the EC50.

beta amyloid 42 = assay: Aβ40/42 ELISA Assay (Aβ42); format: cell-based; details: CHO cells carrying the APP-REP-NL plasmid, 22 hours, sandwich ELISA; for EC50: Cricetulus griseus
Procedure: as §1, §2, §3, §4, §5

[1] = test system: amyloid precursor protein (APP) proteolysis; assay: Repressor Release Assay (RRA); format: cell-based; set-up: key to RRA data (footnote symbols): **: Inactive due to toxicity; however, this compound, at 3-4 μM, reduces Aβ levels by 50% in CHO cells transfected with human APP695 as measured by ELISA without exhibiting toxicity.; ***: Inactive; however, this compound, at 1-4 μM, reduces Aβ levels by 50% in CHO cells transfected with human APP695 as measured by ELISA without exhibiting toxicity; details: transfected CHO-K1 cells; for fold induction at 20 µg/mL: Cricetulus griseus, CHO-K1, all compounds tested at 20 μg/mL, luciferase activity over diluent control, read-out: RRA data (Fold increase of APPI); for RRA data (footnote symbols): tested at 20 μg/mL
Procedure: The beta amyloid inhibitory activity of many of the compounds of the present invention has been determined using the Repressor Release Assay (RRA). See, Table 3 below. A compound is considered active in RRA if it leads to at least a 1.5 fold increase in luciferase activity at 20 μg/mL and is non-toxic.
The compound is considered active in RRA if it leads to at least a 1.5 fold increase in APPI as measured by an increase in luciferase activity at 20 μg/mL and is non-toxic. Shuey, D. J., Sheiffele, P., Jones, D., Cockett, M. I., and Quinet, E. M. (1999) Repressor release: a useful tool for monitoring amyloid precursor protein (APP) proteolysis in mammalian cells. Society for Neuroscience Abstracts, Vol. 25, 29th Annual Meeting of Society for Neuroscience, Miami Beach, Fla., Oct. 23-28, 1999.
CHO—K1 cells are cultured in whole DMEM media (DMEM—High Glucose with 10% fetal bovine serum, 1% Non-essential Amino Acids, and 1% Penicillin-Streptomycin) at 37° C. with 5% CO2. Two million cells are plated into 10-cm dishes 24 hrs prior to transfection.
Transient transfections are completed as recommended by Gibco BRL using their Lipofectamine Plus system. First, 6 μg of pRSVO-luc and 6 μg of APP-lacI construct DNA are added to 460 μL Opti-Mem transfection media and incubated with 30 μL Plus reagent for 15 minutes. Then, a lipid mixture of 40 μL Lipofectamine reagent and 460 μL Opti-Mem transfection media is incubated with the DNA-Plus reagent mixture for 15 minutes. During the DNA-lipid incubation, the CHO—K1 cells are washed once and covered in 5.0 mL DMEM media without Penicillin-Streptomycin. The DNA-lipid preparation is then layered onto these cells and incubated at 37° C. overnight.
One and one half million transfected cells per well (100 μL total volume) are plated into sterile, opaque Packard 96-well Cultur-Plates in clear DMEM whole media (DMEM—without phenol red) and incubated at 37° C. with 5% CO2 for 3-5 hours.
Compounds are diluted using two different protocols; one protocol is used for compounds supplied neat (weighed powder in vial) and the other protocol is used for compounds supplied in solution (20 mM in DMSO in 96-well plates). For both protocols, 25 mM Hepes and 25 mM Hepes/1% DMSO are prepared fresh to be used as diluent. The Hepes/DMSO is used as the diluent control on all experimental plates.
The following Table 1 depicts the steps for compound dilution (the last step is the addition of compound to cells/media in tissue culture plate):
Because some compounds arrive in 96-well format at 20 mM, the following Table 2 represents the protocol for their dilution (an average molecular weight of these compounds was used to calculate these dilutions and as above, the last step is the addition of compound to cells/media in tissue culture plate):
Once compounds are diluted, they are applied in duplicate on cells in tissue culture plates (prepared above). Cells are incubated with compound at 37° C. with 5% CO2 for an additional 36-48 hours.
Luciferase assays (LucLite reagent, Packard) are performed and are read on a Packard TopCount instrument. Media is removed from each 96-well plate and replaced with 100 μL PBS per well (with Mg^2+ and Ca^2+). An equal volume (100 μL) of the LucLite lysis/substrate buffer is added to each well and the plates are sealed and mixed in the dark on a rotary shaker for 15-30 minutes at room temperature. Luciferase readings are then taken on the TopCount instrument. Measurements are expressed as relative light units (RLU) and are calculated and analyzed in MS Excel as follows:
Fold Increase: amount of luciferase activity (measured in relative light units) over diluent control.
SEM: standard error of the mean for fold increase.
Activity: A compound is considered active if it results in at least a 1.5 fold increase in luciferase activity at 20 μg/mL.
Toxicity: determined by loss of signal (<0.75 fold increase).

Compound | EC50 (beta amyloid 40) | Effect on Aβ42 production (beta amyloid 42) | melting point | EC50 (beta amyloid 42) | fold induction at 20 µg/mL [1] | RRA data (footnote symbols) [1]
CCC(CC)C(c1ccnn1-c1ccccc1)N(C)S(=O)(=O)c1ccc(Br)s1 (centres unmarked) [Example 48, 5-Bromo-N-[2-ethyl-1-(1-phenyl-1H-pyrazol-5-yl)butyl]-N-methylthiophene-2-sulfonamide] | 65.1 µM | increase | 115.6 to 118 °C |  |  | 
CCC(CC)C(NS(=O)(=O)c1ccc(Cl)c(Cl)c1)c1ccnn1-c1ccccc1 (centres unmarked) [Example 39, 3,4-Dichloro-N-[2-ethyl-1-(1-phenyl-1H-pyrazol-5-yl)butyl]benzenesulfonamide] | 25.5 µM | increase | 56 to 66 °C |  |  | 
CCC(CC)C(NS(=O)(=O)c1ccc(Br)s1)c1ccnn1-c1ccccc1 (centres unmarked) [Example 40, 5-Bromo-N-[2-ethyl-1-(1-phenyl-1H-pyrazol-5-yl)butyl]thiophene-2-sulfonamide] | 4.1 µM |  | 120 to 120.7 °C | 7.5 µM |  | 
O=S(=O)(NC(c1ccc(F)cc1)c1ccnn1-c1ccc(F)cc1)c1ccc(Cl)s1 (centres unmarked) [Example 34, 5-Chloro-N-{(4-fluorophenyl) [1-(4-fluorophenyl)-1H-pyrazol-5-yl]methyl}thiophene-2-sulfonamide] | 5.8 µM |  | 159 to 160 °C | 10.1 µM |  | 
CCC(CC)C(c1ccnn1-c1ccccc1)N(C)S(=O)(=O)c1ccc(Cl)s1 (centres unmarked) [Example 46, 5-Chloro-N-[2-ethyl-1-(1-phenyl-1H-pyrazol-5-yl)butyl]-N-methylthiophene-2-sulfonamide] | 70.1 µM | increase | 125.8 to 127.6 °C |  |  | 
CC(C)C(NS(=O)(=O)c1ccc(Cl)s1)c1ccnn1-c1ccc(F)cc1 (racemic) [Example 15, 5-Chloro-N-{1-[1-(4-fluorophenyl)-1H-pyrazol-5-yl]-2-methylpropyl}thiophene-2-sulfonamide] | 4 µM |  |  | 5.1 µM | 2.8 | 
CCC(CC)C(c1ccnn1-c1ccccc1)N(C)S(=O)(=O)c1ccc(Cl)cc1 (centres unmarked) [Example 44, 4-Chloro-N-[2-ethyl-1-(1-phenyl-1H-pyrazol-5-yl)butyl]-N-methylbenzenesulfonamide] | 35.7 µM |  | 86.5 to 89 °C |  |  | 
COc1ccc(Cn2nccc2C(C)NS(=O)(=O)c2ccc(Cl)s2)cc1 (centres unmarked) [Example 4, 5-Chloro-N-{1-[1-(4-methoxybenzyl)-1H-pyrazol-5-yl]ethyl}thiophene-2-sulfonamide] | 1.8 µM |  |  | 1.3 µM | 2.3 | 
CCC(CC)C(NS(=O)(=O)c1ccc(Cl)cc1)c1ccnn1-c1ccccc1 (centres unmarked) [Example 36, 4-Chloro-N-[2-ethyl-1-(1-phenyl-1H-pyrazol-5-yl)butyl]benzenesulfonamide] | 23 µM | increase | 135 to 136.4 °C |  |  | 
CCC(CC)C(c1ccnn1-c1ccccc1)N(C)S(=O)(=O)c1ccc(C#N)cc1 (centres unmarked) [Example 43, 4-Cyano-N-[2-ethyl-1-(1-phenyl-1H-pyrazol-5-yl)butyl]-N-methylbenzenesulfonamide] | 47.9 µM | increase | 37.8 to 54 °C |  |  | 
CCC(CC)C(NS(=O)(=O)c1ccc(Cl)s1)c1ccnn1OCc1ccccc1 (centres unmarked) [Example 33, N-{1-[1-(Benzyloxy)-1H-pyrazol-5-yl]-2-ethylbutyl}-5-chlorothiophene-2-sulfonamide] | 2.6 µM |  |  | 4.3 µM |  | **
CCC(CC)C(NS(=O)(=O)c1ccc(Cl)s1)c1ccnn1Cc1ccc(OC)cc1 (centres unmarked) [Example 1, 5-Chloro-N-{2-ethyl-1-[1-(4-methoxybenzyl)-1H-pyrazol-5-yl]butyl}thiophene-2-sulfonamide] | 1 µM |  |  | 1 µM | 7.8 | 
CCC(CC)C(NS(=O)(=O)c1ccc(Cl)s1)c1ncnn1Cc1ccc(OC(F)(F)F)cc1 (centres unmarked) [Example 20, 5-Chloro-N-(2-ethyl-1-{1-[4-(trifluoromethoxy)benzyl]-1H-1,2,4-triazol-5-yl}butyl)thiophene-2-sulfonamide] | 2.4 µM |  |  | 4.3 µM | 9.8 | 
CCC(CC)C(NS(=O)(=O)c1ccc(C#N)cc1)c1ccnn1-c1ccccc1 (centres unmarked) [Example 37, 4-Cyano-N-[2-ethyl-1-(1-phenyl-1H-pyrazol-5-yl)butyl]benzenesulfonamide] | 85.2 µM | increase | 134.6 to 136.6 °C |  |  | 
CCCC(NS(=O)(=O)c1ccc(Cl)s1)c1ccnn1Cc1ccc(OC)cc1 (centres unmarked) [Example 6, 5-Chloro-N-{1-[1-(4-methoxybenzyl)-1H-pyrazol-5-yl]butyl}thiophene-2-sulfonamide] | 1.5 µM |  |  | 1.4 µM | 4.7 | 
CCC(CC)C(NS(=O)(=O)c1ccc(Cl)s1)c1nccn1Cc1ccc(OC)cc1 (centres unmarked) [Example 29, 5-Chloro-N-{2-ethyl-1-[1-(4-methoxybenzyl)-1H-imidazol-2-yl]butyl}thiophene-2-sulfonamide] | 50.7 µM |  |  | 52.5 µM | 1.9 | 
CCC(CC)C(NS(=O)(=O)c1ccc(Cl)s1)c1ncnn1Cc1ccccc1 (centres unmarked) [Example 22, N-[1-(1-Benzyl-1H-1,2,4-triazol-5-yl)-2-ethylbutyl]-5-chlorothiophene-2-sulfonamide] | 1.5 µM |  |  | 1.5 µM | 7.2 | 
CC(C)C(NS(=O)(=O)c1ccc(Cl)s1)c1ccnn1-c1ccccc1 (centres unmarked) [Example 12, 5-Chloro-N-[2-methyl-1-(1-phenyl-1H-pyrazol-5-yl)propyl]thiophene-2-sulfonamide] | 1.4 µM |  |  | 3.3 µM |  | ***
